# Earlier results, collected in patent US8236821B2, “Substituted N-phenyl-5-phenyl-pyrazolin-3-yl amides as cannabinoid receptor antagonists/inverse agonists useful for treating obesity” (Jenrin Discovery, Inc., priority 2008, dated 2012).
# Conditions: type 2 diabetes patients not treated with other anti-diabetic medications; six months of treatment; baseline value 7.9; placebo reduction 0.3%
structure (smiles),measurement,value
Cc1c(C(=O)NN2CCCCC2)nn(-c2ccc(Cl)cc2Cl)c1-c1ccc(Cl)cc1 [rimonabant],HbA1c levels lowered,0.8%
